Assay [1] concerns the target recombinant WT T. cruzi proteasome (trypsin-like activity, β2) (Trypanosoma cruzi, UniProt V5BCU3). The experiment in a line: biochemical. Particulars: for IC50: mean ± SD, N = 3, read-out: pIC50, Trypsin Assay, Wild-type (converted). The format is biochemical. The method, then: (§1) Chymotrypsin-, trypsin-, and caspase-like activity assays were performed using a commercially available Proteasome-Glo 3-substrate system assay kit (catalog number G8532) (Promega Corporation) according to the manufacturers protocols and as previously described ([24]).
(§2) Prior to running assays, Proteasome-Glo buffer was used to reconstitute the luciferin detection reagent (containing a recombinant thermostable luciferase enzyme). The resuspended luciferin detection reagent was then mixed with Proteasome-Glo chymotrypsin-, trypsin- or caspase-like substrates (either 40 μM suc-Leu-Leu-Val-Tyr-aminoluciferin, 30 μM Z-Leu-Arg-Arg-aminoluciferin (Z is benzyloxycarbonyl) or 40 μM Z-Nle-Pro-Nle-Asp-aminoluciferin respectively (these concentrations represent 2x final assay concentrations)). These substrate mixtures were allowed to incubate at room temperature for 60 min prior to use to allow the removal of any contaminating free aminoluciferin.
(§3) When proteasome inhibitors were to be screened in the chymotrypsin, trypsin, and caspase assays, test compounds were dispensed into assay wells using an ECHO 550 acoustic dispenser (Labcyte) (final DMSO concentration 1%). Compounds were tested in either a 10-point concentration series (30 μM top final assay concentration, 1 in 3 dilution series) or a 12-point concentration series (30 μM top final assay concentration, 1 in 2.5 dilution series).
(§4) Proteasome assays were then performed as described above using Promega Proteasome-Glo 3-substrate system assay kit. […] Diluted proteasome (4 μl) was added to assay plates using an electronic multichannel pipette (Integra Biosciences Ltd) and the proteasome incubated with compound for 60 min at room temperature.
(§5) Following the 60 min incubation of proteasome and compounds, assays were initiated with the addition of 4 μl of a substrate mix (containing substrate and the luciferin detection reagent) using an electronic multichannel pipette. Final assay concentrations of substrates used were either 20 μM Suc-Leu-Leu-Val-Tyr-aminoluciferin, 15 μM Z-Leu-Arg-Arg-aminoluciferin, or 20 μM Z-Nle-Pro-Nle-Asp-aminoluciferin for chymotrypsin-, trypsin-, or caspase-like activity, respectively. Following a further 60 min assay incubation, luminescence was read using an EnVision 2102 Multilabel Reader (PerkinElmer, Inc) with 0.2 s per well reading time.
(§6) All data processing was performed using Microsoft Excel for Microsoft 365 software.
(§7) Nonlinear dose-response curve fitting was carried out using the Microsoft Excel add-in, XLfit (IDBS). Percentage inhibition data were either fitted to a standard 4-parameter logistic fit model (XLfit model 205; Equation 2) or a biphasic model (either XLfit model 300; Equation 3 or a custom biphasic model; Equation 4 (used in cases where the top and/or bottom parameters deviated from 100%/0% inhibition)).(2) y=A+(B−A)/1+(C/x)^D Where A = % inhibition at bottom, B = % inhibition at top, C = IC50, D = slope, x = inhibitor concentration and y = % inhibition.(3) y=(A/(1+10^(C−log(x))∗B))+((100−A)/(1+10^(D−log(x))∗B)) With A = % inhibition at midplateau, B = slope, C = log(IC50^A), D = log(IC50^B)).
(§8) All IC50 data generated were converted to pIC50 using Equation 5.

The target of assay [2] is recombinant β4^R mutant T. cruzi proteasome (trypsin-like activity) (Trypanosoma cruzi, UniProt V5BCU3). The format is biochemical. Particulars: for pIC50, Trypsin Assay, β4^R mutant: mean ± SD, N = 3. The method, then: Point mutations were created in individual subunits using overlapping PCR from the original templates using Polh and Tn7L primers outside the genes and suitable internal primers to introduce selected mutations. For Δβ1Δβ2, β1 Thr 55, and β2 Thr 67 were both mutated to Ala, the β4^R mutant was produced by mutating Phe 24 and Ile 29 to Leu and Met respectively in β4 subunit.
as §1, §2
Proteasome assays were carried out using 384-well, white, low-volume plates (catalog number 784904) (Greiner Bio-One) at room temperature (∼23 °C) in 8 μl reaction volumes. When activity checks were to be run in the presence or absence of a fixed concentration of proteasome inhibitor, 80 nL of the inhibitor (at a concentration 100x the required final assay concentration), or 80 nL dimethylsulfoxide (DMSO), were dispensed into assay plates using an Echo 550 acoustic dispenser (Labcyte).
A 1 in 2 dilution series of the various T. cruzi proteasome samples (native, recombinant WT, β4^R mutant, and Δβ1Δβ2 mutant) were produced in assay buffer (50 mM Tris–HCl, pH 7.5, 10 mM sucrose, 5 mM MgCl2, 1 mM DTT, 2 mM ATP, 150 mM NaCl, 1 mM EDTA, and 0.05 mg/ml bovine serum albumin). Subsequently, 4 μl of the various concentrations of diluted proteasome were added to assay plates using an electronic multichannel pipette (Integra Biosciences Ltd). When kinetic read activity checks were performed (Fig. 2), proteasome final assay concentrations used were 115 μg/ml, 115 μg/ml, and 230 μg/ml native proteasome (in the chymotrypsin, trypsin, and caspase assays, respectively), and 4.1 μg/ml, 3.4 μg/ml, or 1.4 μg/ml recombinant WT proteasome (in the chymotrypsin, trypsin, and caspase assays, respectively). When activity checks were to be run in the presence or absence of a proteasome inhibitor plates containing inhibitor or DMSO control were incubated with the relevant proteasome sample for 60 min at room temperature (this step was not included in activity check experiments where compounds were not used).
Following the 60 min incubation of proteasome and compound (if required), assays were initiated with the addition of 4 μl of substrate mix (containing substrate and the luciferin detection reagent) using an electronic multichannel pipette. Final assay concentrations of substrates used were either 20 μM Suc-Leu-Leu-Val-Tyr-aminoluciferin, 15 μM Z-Leu-Arg-Arg-aminoluciferin, or 20 μM Z-Nle-Pro-Nle-Asp-aminoluciferin for chymotrypsin-, trypsin- or caspase-like activity respectively.
Luminescence was read either kinetically or as an endpoint read using an EnVision 2102 Multilabel Reader (PerkinElmer, Inc) with 0.2 s per well reading time. When kinetic assays were run, luminescence was read every 5 min for 90 min. Endpoint assays were run for 60 min before luminescence was read. All data processing and linear fit analyses were performed using Microsoft Excel for Microsoft 365 software (Redmond, Washington; https://www.microsoft.com/).

For assay [3], the target named is native T. cruzi proteasome (chymotrypsin-like activity, β5) (Trypanosoma cruzi, UniProt V5BU39+V5C017). The assay can be described thus: Chymotrypsin-like activity assay (Proteasome-Glo), native T. cruzi proteasome. The format is biochemical. The method, then:
as §1, §2, §3, §4, §5, §6, §7, §8

Assay [4] deals with intracellular T. cruzi Silvio X10/7 A1 amastigotes. The assay can be described thus: Intracellular T. cruzi assay. The format is cell-based. To be noted: Trypanosoma cruzi; 96 h compound treatment, Vero host cells; given as [mean pEC50, SD, N]; read-out: Mean pEC50 against intracellular T. cruzi parasites (converted). The method, then: Potency against intracellular T. cruzi Silvio X10/7 A1 amastigotes was determined as described previously ([53]), with a sole modification that the compound treatment duration was 96 h instead of 72 h. Vero host cells were obtained from The European Collection of Authenticated Cell Cultures (cat. number 84113001) and tested for mycoplasma (negative). T. cruzi Silvio X10/7 A1 was obtained from Prof. Alan Fairlamb, and discrete typing unit confirmed by genotyping ([53]).

The values below come from publication PMC11748689, “Pharmacological and structural understanding of the Trypanosoma cruzi proteasome provides key insights for developing site-specific inhibitors” (The Journal of Biological Chemistry, 2024).

Sequence of native T. cruzi proteasome (chymotrypsin-like activity, β5) (V5BU39 entry or part of it): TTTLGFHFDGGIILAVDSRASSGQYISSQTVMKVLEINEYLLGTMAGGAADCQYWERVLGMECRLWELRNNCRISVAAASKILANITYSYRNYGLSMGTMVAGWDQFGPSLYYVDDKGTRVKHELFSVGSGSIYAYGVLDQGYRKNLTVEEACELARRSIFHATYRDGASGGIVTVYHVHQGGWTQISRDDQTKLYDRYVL
Sequence of native T. cruzi proteasome (chymotrypsin-like activity, β5) (V5C017 entry or part of it): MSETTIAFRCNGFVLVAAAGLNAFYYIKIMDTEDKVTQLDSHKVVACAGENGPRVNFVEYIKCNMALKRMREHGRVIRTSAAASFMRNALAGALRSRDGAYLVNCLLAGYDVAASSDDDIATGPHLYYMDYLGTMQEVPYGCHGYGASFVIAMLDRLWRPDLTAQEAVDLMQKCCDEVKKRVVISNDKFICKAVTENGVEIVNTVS
Sequence of native T. cruzi proteasome (chymotrypsin-like activity, β5) (V5BGL9 entry or part of it, further chain): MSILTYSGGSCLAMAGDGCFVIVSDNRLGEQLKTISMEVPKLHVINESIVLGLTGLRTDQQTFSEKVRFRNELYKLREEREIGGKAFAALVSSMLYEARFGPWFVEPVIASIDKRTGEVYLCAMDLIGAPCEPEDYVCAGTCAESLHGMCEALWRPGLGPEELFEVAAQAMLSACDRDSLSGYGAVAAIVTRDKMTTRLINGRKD

As to `O=C(Nc1ccc(F)c(C(=O)NC2CC2)c1)c1ccc(COc2ccccc2)o1` [DDD02091966, N-(3-(cyclopropylcarbamoyl)-4-fluorophenyl)-5-(phenoxymethyl)furan-2-carboxamide], the results for the IC50 in assay [1] and in assay [3] were more than 30200 nM and 38 nM, respectively. Moreover, the “inhibition of the trypsin activity” value in assay [1] (native and recombinant T. cruzi proteasomes) is “no inhibition”. Besides, the “pIC50, Trypsin Assay, β4^R mutant” value in assay [2] is less than 4.52. Besides, the EC50 in assay [4] was 251 nM.

Regarding `O=C(Nc1ccc(F)c(-c2cn3nc(-c4ccccc4)cnc3n2)c1)N1CCCC1` [DDD01012248], the IC50 is more than 30200 nM in assay [1] and 30.9 nM in assay [3]. Also, the “inhibition of trypsin activity, β4^R mutant, fixed concentration” value in assay [2] (1 μM compound (Fig. S4)) was “did not inhibit”. Also, the “pIC50, Trypsin Assay, β4^R mutant” value in assay [2] is less than 4.52. For the same molecule, in assay [4], the EC50 was 20 nM.
